Data taken from ChEMBL document CHEMBL5233262, “Anti-inflammatory activity of naturally occuring diarylheptanoids - A review” (Bioorg Med Chem, 2021).
Converted amounts (≈) assume the structure as drawn. Each block holds one compound with its values, some of them ahead of it. Residues, ends and D or L forms follow the SMILES beside them. *: point of attachment. Cbz = O=C(OCc1ccccc1)*

What was measured:
Mus musculus [1] = assay: Antiinflammatory activity in ICR mouse model of TPA-induced ear edema assessed as inhibition of ear inflammation at 1 mg,TOP for 30 mins followed by TPA addition and measured after 6 hrs; assay type: functional; settings: time 390 min, 6.5 h
RAW264.7 [2] = assay: Antiinflammatory activity in mouse RAW264.7 cells assessed as inhibition of LPS-induced NO production incubated for 18 hrs by Griess method; assay type: functional, cell-based; settings: RAW264.7, 18 h
RAW264.7 [3] = assay: Antiinflammatory activity in mouse RAW264.7 cells assessed as inhibition of LPS-induced NO production preincubated for 0.5 hrs followed by LPS stimulation and measured after 24 hrs by Griess reagent based analysis; assay type: functional, cell-based
RAW264.7 [4] = assay: Antiinflammatory activity in mouse RAW264.7 cells assessed as inhibition of LPS-induced NO production for 24 hrs by Griess assay; assay type: functional, cell-based; settings: RAW264.7, 24 h
RAW264.7 [5] = assay: Antiinflammatory activity in mouse RAW264.7 cells assessed as inhibition of LPS-induced NO production preincubated for 1 hrs followed by LPS stimulation and measured after 24 hrs by Griess method; assay type: functional, cell-based
RAW264.7 [6] = assay: Antiinflammatory activity in mouse RAW264.7 cells assessed as inhibition of LPS-induced TNFalpha level preincubated for 1 hrs followed by LPS stimulation and measured after 24 hrs by ELISA; assay type: functional, cell-based
[7] = Antiinflammatory activity in mouse N11 cells assessed as inhibition of LPS-induced TNFalpha level preincubated for 1 hrs followed by LPS stimulation and measured after 24 hrs by ELISA; assay type: functional, cell-based
[8] = Antiinflammatory activity in mouse N11 cells assessed as inhibition of LPS-induced NO production preincubated for 1 hrs followed by LPS stimulation and measured after 24 hrs by Griess method; assay type: functional, cell-based
J774.1 [9] = assay: Antiinflammatory activity in mouse J774.1 cells assessed as inhibition of LPS-induced NO production incubated for 48 hrs by Griess reagent based analysis; assay type: functional, cell-based; settings: Mus musculus, J774.1, 48 h
[10] = Inhibition of COX in bovine seminal vesicle assessed as reduction in PGE2 production using arachidonic acid as substrate; assay type: tissue-based, Bos taurus
[11] = Antioxidant activity assessed as ABTS radical scavenging activity measured after 6 mins; assay type: functional
RAW264.7 [12] = assay: Antiinflammatory activity in mouse RAW264.7 cells assessed as inhibition of LPS-induced NO production preincubated for 1 hrs followed by LPS stimulation and measured after 24 hrs by Griess reagent based spectrophotometrical method; assay type: functional, cell-based
[13] = Antioxidant activity assessed as […] radical scavenging activity at 50 uM; assay type: functional
Rattus norvegicus = assay: Antiinflammatory activity in rat model of carrageenan-induced paw edema assessed as reduction in paw thickness at 10 mg/kg,ip and measured after 4 hrs; assay type: functional; design: scale not given: the % may be the effect or the level left
Mus musculus [14] = assay: Antiinflammatory activity in TPA-induced ear edema ICR mouse model assessed as inhibition of ear inflammation at 1 ug, TOP for 30 mins followed by TPA addition and measured after 6 hrs; assay type: functional; settings: dose 1 µg, time 390 min, 6.5 h
J774.1 [15] = assay: Cytotoxicity in mouse J774.1 cells assessed as reduction in cell viability at 100 microg/ml; assay type: toxicity, cell-based; settings: at 100 µg/mL
J774.1 [16] = assay: Antiinflammatory activity in mouse J774.1 cells assessed as inhibition of LPS-induced NO production at 100 microg/ml; assay type: functional
RAW264.7 [17] = assay: Antiinflammatory activity in mouse RAW264.7 cells assessed as inhibition of LPS-induced NO production preincubated for 1 hrs followed by LPS stimulation and measured after 24 hrs by Griess reagent based analysis; assay type: functional, cell-based
[18] = Antioxidant activity assessed as DPPH radical scavenging activity incubated for 30 mins by spectrophotometric analysis; assay type: functional
[19] = Antioxidant activity assessed as nitroblue tetrazolium superoxide radical scavenging activity incubated for 10 mins by spectrophotometric analysis; assay type: functional
RAW264.7 [20] = assay: Antiinflammatory activity in mouse RAW264.7 cells assessed as inhibition of LPS-induced NO production incubated for 20 hrs by Griess method; assay type: functional, cell-based; settings: RAW264.7, 20 h
RAW264.7 [21] = assay: Antiinflammatory activity in mouse RAW264.7 cells assessed as inhibition of IFN-gamma and LPS-induced NO production incubated for 24 hrs by Griess assay; assay type: functional, cell-based; settings: RAW264.7, 24 h
RAW264.7 [22] = assay: Antiinflammatory activity against mouse RAW264.7 cells assessed as inhibition of IFN-gamma and LPS-induced COX2 production preincubated for 2 hrs followed by IFN-gamma and LPS stimulation and measured after 16 hrs by spectrophotometric analysis; assay type: functional, cell-based
Zingiber officinale = assay: Inhibition of prostaglandin biosynthesis in ginger; assay type: functional, organism-based

Structure (SMILES): Oc1ccc2cc1Oc1ccc(cc1)CCCC[C@@H](O)CC2
ID50 (Mus musculus [1]): 0.26 mg

Structure (SMILES): CC(C)C[C@@H](C=O)NC(=O)[C@H](CC(C)C)NC(=O)[C@H](CC(C)C)NC(=O)OCc1ccccc1 [MG-132] (Cbz-Leu-Leu-Leu-aldehyde)
IC50 (RAW264.7 [2]): 0.1 µM

Structure (SMILES): Oc1ccc2cc1Oc1ccc(cc1)CC[C@H](O)CCCC2 [ACEROGENIN A]
ID50 (Mus musculus [1]): 0.32 mg

Structure (SMILES): O=C1CCc2ccc(cc2)Oc2cc(ccc2O)CC[C@@H](O[C@@H]2O[C@H](CO)[C@@H](O)[C@H](O)[C@H]2O)C1
ID50 (Mus musculus [1]): 0.49 mg

Structure (SMILES): COc1ccc(C/C=C/CCCCc2ccc(OC)c(OC)c2)cc1
IC50 (RAW264.7 [5]): 28.3 µM | IC50 (RAW264.7 [6]): 5.3 µM | IC50 [7]: 4.3 µM | IC50 [8]: 12.7 µM

Structure (SMILES): NC1=NN(c2cccc(C(F)(F)F)c2)CC1 [BW-755C]
IC50 [10]: 32 µM

Structure (SMILES): COc1c2cc(c(O)c1OC)CCCC[C@@H](O)CCc1ccc(O)c-2c1
IC50 [11]: 22.3 µM | IC50 (RAW264.7 [12]): 7.5 µM

Structure (SMILES): COc1c2cc(c(O)c1OC)CCCC[C@H](O)CCc1ccc(O)c-2c1
Activity [13]: 41% | Activity (Rattus norvegicus): 51.5%

Structure (SMILES): COc1c2cc(c(O)c1OC)CCCCC(=O)CCc1ccc(O)c-2c1 [MYRICANONE]
IC50 [11]: 19.6 µM | Activity [13]: 41% | Activity (Rattus norvegicus): 49.6% | IC50 (RAW264.7 [12]): 1 µM

Structure (SMILES): CO[C@@H](CCc1ccccc1)CC(=O)CCc1ccccc1
ID50 (Mus musculus [14]): 2.7 µmol

Structure (SMILES): CCCOC(=O)c1cc(O)c(O)c(O)c1
Activity [13]: 97%

Structure (SMILES): COc1c2cc(c(O[C@@H]3O[C@H](CO)[C@@H](O)[C@H](O)[C@H]3O)c1OC)CCCCC(=O)CCc1ccc(O)c-2c1
Activity [13]: 41% | Activity (Rattus norvegicus): 46.9%

Structure (SMILES): Oc1ccc(CCCC[C@@H](O)CCc2ccc(O)c(O)c2)cc1O
IC50 (RAW264.7 [17]): 10.2 µM | IC50 [18]: 23.3 µM | IC50 [19]: 11.6 µM | IC50 (RAW264.7 [20]): 5.2 µM | IC50 (RAW264.7 [21]): 28.4 µg/mL (≈ 85.4 µM) | IC50 (RAW264.7 [3]): 20 µM | IC50 (RAW264.7 [22]): 45.3 µg/mL (≈ 136 µM)

Structure (SMILES): COc1cc(CCC(=O)CC(=O)CCc2ccccc2)ccc1O
IC50 (Zingiber officinale): 4.4 µM

Second part, led by results:

IC50 (RAW264.7 [3]): 63 µM
Structure (SMILES): Oc1ccc(CCCC[C@H](CCc2ccc(O)cc2)O[C@@H]2OC[C@@H](O)[C@H](O)[C@H]2O)cc1

IC50 (RAW264.7 [4]): 79.9 µM
Structure (SMILES): OC[C@H]1O[C@@H](O[C@@H]2C[C@@H](CCc3ccc(O)cc3)O[C@@H](c3ccc(O)c(O)c3)C2)[C@H](O)[C@@H](O)[C@@H]1O

IC50 (J774.1 [9]): 39 µM
Structure (SMILES): COc1cc(O)c([C@@H](/C=C/C[C@@H](O)CCc2ccc(O)cc2)c2ccc(O)cc2)c(O)c1C(=O)[C@@H]1[C@H](/C=C/c2ccc(O)cc2)C[C@H](CCc2ccc(O)cc2)O[C@H]1c1ccc(O)cc1

IC50 (RAW264.7 [3]): 22 µM
Structure (SMILES): O=C(CCc1ccc(O)c(O)c1)C[C@H](CCc1ccc(O)c(O)c1)O[C@H]1OC[C@H](O)[C@@H](O)[C@@H]1OC(=O)/C=C/c1ccc(O)cc1

IC50 [7]: 20 µM | IC50 [8]: 15 µM
Structure (SMILES): O=c1cc(-c2ccc(O)cc2)oc2cc(O)cc(O)c12 [APIGENIN]

IC50 (RAW264.7 [2]): > 25 µM
Structure (SMILES): Oc1ccc(CCCC[C@H](O)CCc2ccc(O)cc2)cc1

IC50 (J774.1 [9]): 181 µM
Structure (SMILES): COc1cc(/C=C/C(=O)CC(=O)CCc2ccc(O)c(OC)c2)ccc1O

IC50 (RAW264.7 [3]): 15.4 µM
Structure (SMILES): O=C(CCc1ccc(O)c(O)c1)C[C@H](CCc1ccc(O)c(O)c1)O[C@H]1OC[C@H](O)[C@@H](O)[C@@H]1OC(=O)c1ccccc1

IC50 (J774.1 [9]): 51 µM
Structure (SMILES): COc1cc(O)c([C@@H]2C[C@H](CCc3ccc(O)cc3)O[C@@H](c3ccc(O)cc3)C2)c(O)c1C(=O)/C=C/c1ccc(O)cc1 [EPICALYXIN F]

IC50 (RAW264.7 [2]): 13.8 µM
Structure (SMILES): Oc1ccc(CC[C@@H](O)CCCCc2ccc(O)c(O)c2)cc1

IC50 (J774.1 [9]): 84 µM
Structure (SMILES): COc1cc(O)c([C@H](/C=C/C[C@@H](O)CCc2ccc(O)cc2)c2ccc(O)cc2)c2oc(-c3ccc(O)cc3)cc(=O)c12 (stereo in doubt; 110)
Activity (J774.1 [15]): 85% | inhibition at 100 µg/mL (J774.1 [16]): 90%

IC50 (RAW264.7 [3]): 15.2 µM
Structure (SMILES): CO[C@@H](CCc1ccc(O)cc1)CC(=O)CCc1ccc(O)cc1

IC50 (RAW264.7 [3]): 30 µM
Structure (SMILES): CCC(C)C(=O)O[C@@H]1[C@@H](O[C@@H](CCc2ccc(O)c(O)c2)CC(=O)CCc2ccc(O)c(O)c2)OC[C@H](O)[C@H]1O (stereo not given in full)
